The values below come from PMC8780785 (Molecules, 2022).

Values after ≈ are worked out from the molar mass of the structure shown.

In general, Km refers to the substrate concentration at which the rate is half of its maximum. By EC50 is commonly meant the concentration that produces a half-maximal response. Read a low EC50 as an effect from little substance. By IC50 is commonly meant the concentration needed to halve the response being measured. The MBC is the lowest tested concentration that kills the bacteria rather than only halting them.

One data set deals with laccase (LAC). The following applies: read-out: KM (Michaelis–Menten constant); 0.1 M sodium-tartrate buffer pH 4, 440 nm, Lineweaver–Burk. From the text: The reaction mixture was scanned to determine the λ max cha-racterizing the main reaction product od dye using a Cary 50 Bio spectrophotometer (Varian, Palo Alto, CA, USA).
Data set [1] is described as follows: Cyclic voltammetry of the ANS substrate. Type of data set: physicochemical. As to conditions: 1 mM substrate, 0.1 M sodium tartrate buffer pH 4.5. On the procedure: All measurements were performed for the 1 mM substrate dissolved in 0.1 M sodium tartrate buffer at pH 4.5 in triplicate at room temperature 22 ± 3 °C. The potential was scanned with the scan speed of 50 mV/s from −400 to 1500 mV vs. Ag/AgCl/KClsat after holding the electrochemical system at the initial potential for 10 s.

The next data set deals with Vibrio fisheri. Nature of the data set: Environmental toxicity, 81.9% Basic Test Microtox protocol. Format: cell-based. The following applies: 5 min. The source says: Toxicity was expressed as half maximal effective concentration (EC50) according to the 81.9% Basic Test Microtox protocol. All reagents and Vibrio […] bacterium were purchased from […]), the Polish representative of Modern Water Company (New Castle, DE, USA).

In data set [2] the test system is human normal colon epithelial cell line CCD-841 CoTr. Nature of the data set: Cytotoxicity, LDH assay, colon epithelial cells. The following applies: after 24 h. Type of data set: cell-based. The method, then: (§1) Cell cultures: The research was conducted on human normal colon epithelial cell line CCD-841 CoTr (ACCT, No. CRL-1807) and human normal colon fibroblast cell line CCD-18Co (ATCC, No. CRL-1459) obtained from the American Type Culture Collection (ATCC, Manassas, VA, USA). The cells were grown in a mixture of DMEM and RPMI 1640 media (1:1) containing 10% (v/v) of foetal bovine serum (FBS) and antibiotics (100 U/mL penicillin and 100 μg/mL streptomycin) and kept in standard conditions (at 37 °C in humidified atmosphere of 5% CO2). For the MTT and LDH tests, cells at the density of 1 × 10^5 cells /mL were seeded on 96-well plates. […] Lactate dehydrogenase(LDH) assay: This assay measures lactate dehydrogenase (LDH) released to the medium by cells with a damaged plasma membrane. […] Absorbance was recorded on a microplate reader (Spark, Tecan, Austria) at 490 nm with a reference wavelength at 690 nm. Results obtained from three independent experiments were reported as cell viability (%) calculated according to the formula: cell viability (%) = (100 − Abssample × Abscontrol^−1) × 100% All analyses were performed in triplicate and presented as mean ± SD. The IC50 value was calculated by nonlinear regression using a curve fitting program in GraphPad Prism 5.0.

Data set [3] has the same test system. As to the kind of experiment: Cytotoxicity, MTT assay, colon epithelial cells. Type of data set: cell-based. The following applies: CCD-841, 24 h, read-out: IC50 Colon Epithelial Cells MTT. On the procedure: (§2) Cell cultures: The research was conducted on human normal colon epithelial cell line CCD-841 CoTr (ACCT, No. CRL-1807) and human normal colon fibroblast cell line CCD-18Co (ATCC, No. CRL-1459) obtained from the American Type Culture Collection (ATCC, Manassas, VA, USA). The cells were grown in a mixture of DMEM and RPMI 1640 media (1:1) containing 10% (v/v) of foetal bovine serum (FBS) and antibiotics (100 U/mL penicillin and 100 μg/mL streptomycin) and kept in standard conditions (at 37 °C in humidified atmosphere of 5% CO2). For the MTT and LDH tests, cells at the density of 1 × 10^5 cells /mL were seeded on 96-well plates. […] MTT assay: This method is used to determine cell viability and proliferation. […] Then, to stop the reaction and dissolve the formazan crystals, 100 µL of a 10 % SDS solution in 0.01 N HCL was added. The following day, the absorbance was determined spectrophotometrically at 570 nm using a microplate reader (Spark, Tecan, Austria). Results obtained from three independent experiments were reported as cell viability (%) calculated according to the formula: cell viability (%) = (100 − Abssample × Abscontrol^−1) × 100% All analyses were performed in triplicate and presented as mean ± SD. The IC50 value was calculated by nonlinear regression using a curve fitting program in GraphPad Prism 5.0.

In data set [4] the test system is human normal colon fibroblast cell line CCD-18Co. Nature of the data set: Cytotoxicity, LDH assay, fibroblasts. Type of data set: cell-based. As to conditions: after 24 h. The method, then:
as §1

The test system is the same in data set [5]. As to the kind of experiment: Cytotoxicity, MTT assay, fibroblasts. Format: cell-based. As to conditions: 24 h, read-out: IC50 Fibroblasts MTT. On the procedure: as §2
(Tetrazolium assays rely on reduction of a dye to a coloured formazan, in cell work by metabolically active cells.)

Data set [6] in a line: Cytotoxicity regardless of assay method and cells used. Type of data set: cell-based. The following applies: human; regardless of the toxicity assay method and the cells used; read-out: IC50 (cytotoxicity), lowest value.
Method: For the MTT and LDH tests, cells at the density of 1 × 10^5 cells /mL were seeded on 96-well plates. After 24 h incubation, the medium was replaced with a fresh one with 2% of FBS supplemented with ANS or not (control).
MTT assay: This method is used to determine cell viability and proliferation. It is based on the measurement of the oxidoreductive activity of mitochondria with the yellow dye 3-(4,5-dimethylthiazo-2-yl)-2,5-diphenyl-tetrazolium bromide (MTT) which is metabolised in living cells to purple formazan crystals. After 24 h incubation with the examined compounds, 25 µL of MTT (5 mg/mL) was introduced onto each well and incubated for 3 h. Then, to stop the reaction and dissolve the formazan crystals, 100 µL of a 10 % SDS solution in 0.01 N HCL was added. The following day, the absorbance was determined spectrophotometrically at 570 nm using a microplate reader (Spark, Tecan, Austria).
Results obtained from three independent experiments were reported as cell viability (%) calculated according to the formula: cell viability (%) = (100 − Abssample × Abscontrol^−1) × 100% […]
For another data set, the system named is S. aureus ATCC 25923. Nature of the data set: MIC and MBC determination (CLSI protocol), S. aureus. The following applies: Staphylococcus aureus, ATCC25923, read-out: MBC S. aureus. Format: cell-based. The method, then: (§3) The stock solutions (10 mg/mL) of the tested substances were prepared in distilled water and afterwards diluted to the appropriate concentration in Mueller–Hinton Bullion. In each well of a 96-well plate, 300 µL of the mixture was inoculated with 10 µL of the bacterial culture (final density~10^2 cfu/mL). […] Then, 10 µL of the suspension from each well was transferred to a fresh sterile medium and incubated for another 24 h at 37 °C. The lack of turbidity indicated bactericidal activity of the investigated substances and the MBC value was thus determined.

The subject of data set [7] is S. epidermidis ATCC 14990. As to the kind of experiment: MIC and MBC determination (CLSI protocol), S. epidermidis. Type of data set: cell-based. As to conditions: Staphylococcus epidermidis, ATCC14990, read-out: MBC S. epidermidis. The method, then:
as §3

The nature of the next data set: ABTS assay (antioxidant). As to conditions: concentration reducing 50% of radicals. The method, then: ABTS assay: In this method, the ability of the tested dye to reduce the dark green ABTS radical cation (ABTS^●+) was evaluated. First, 5 mM phosphate buffer pH 7.4 (PBS) and 7.4 mM ABTS solution were prepared. During the ABTS solution preparation, ABTS was dissolved and ABTS^●+ was generated by reacting with K2S2O8 (2.4 mM final concentration) in a dark bottle at room temperature for 16–18 h. Next, the ABTS^●+ solution was diluted with PBS to an absorbance of 0.7 at 734 nm measured using a Tecan plate reader (Spark, Tecan, Austria). ABTS^●+ (990 µL) was added to the tested dye sample (10 µL) in a 96-well plate and incubated for 10 min at room temperature. The tested dye concentration was in the range from 0.01 to 1 mg/mL. Simultaneously, the negative control (XC) and the control of dye colour correction (XD) were incubated. The change in the absorbance of ABTS^●+ with the dye sample (XP) and controls were measured in the plate reader at 734 nm and the ABTS^●+ reduction rate (AR) was calculated according to the following equation: AR=(XC−(XP−XD)/XC)×100% All analyses allowing determination of antioxidative properties were performed in triplicate in room temperature 22 ± 3 °C. […] Trolox was used as positive controls for each technique.

The nature of the next data set: DPPH assay (antioxidant). The following applies: concentration reducing 50% of radicals. On the procedure: DPPH assay: […] Then, 100 µL of the tested dye was added to a 96-well plate containing 100 µL of a freshly prepared DPPH solution in 95% ethanol. […] The mixture was incubated at room temperature for 20 min. The change in absorbance caused by the tested dyes (XP) and ultrapure water as a negative control (XC) was monitored at 515 nm using a multiplate reader (Spark, Tecan, Austria). Simultaneously, the absorbance of the dye at a wavelength of 515 nm was investigated as a control of the dye–colour correction (XD). The radical reduction rate (DR) was calculated according to the following equation: DR(%)=(XC−(XP−XD)/XC)×100% All analyses allowing determination of antioxidative properties were performed in triplicate in room temperature 22 ± 3 °C. […] Trolox was used as positive controls for each technique.

Data set [8] in a line: Chemiluminescence assay (luminol, antioxidant). As to conditions: concentration reducing 50% of radicals. The method, then: Chemiluminescence Assay: The assay of the antioxidant properties of the tested dyes was based on the measurement of luminol chemiluminescence induced by hydroxyl radicals in the Fe^2+-EDTA-H2O2-luminol system. […] Afterwards, the samples were placed in a Berthold–Lumat LB 9506 luminometer, and the solutions of reagents were added automatically as follows: 1.5 mM Fe^2+-EDTA (100 µL) and 4.4 mM H2O2 (100 µL). The chemiluminescence was measured with (I1) or without (I0) the addition of the tested dye. The inhibitory rate (IR) was calculated according to the following equation: IR(%)=(1−I1/Io)×100 All analyses allowing determination of antioxidative properties were performed in triplicate in room temperature 22 ± 3 °C. […] Trolox was used as positive controls for each technique.

Data set [9] can be described thus: Antioxidative potential over the three methods (ABTS, DPPH, luminol). As to conditions: range depending on the method used. On the procedure:
Chemiluminescence Assay: The assay of the antioxidant properties of the tested dyes was based on the measurement of luminol chemiluminescence induced by hydroxyl radicals in the Fe^2+-EDTA-H2O2-luminol system. […] Afterwards, the samples were placed in a Berthold–Lumat LB 9506 luminometer, and the solutions of reagents were added automatically as follows: 1.5 mM Fe^2+-EDTA (100 µL) and 4.4 mM H2O2 (100 µL). The chemiluminescence was measured with (I1) or without (I0) the addition of the tested dye. The inhibitory rate (IR) was calculated according to the following equation: IR(%)=(1−I1/Io)×100 DPPH assay: […] […] The change in absorbance caused by the tested dyes (XP) and ultrapure water as a negative control (XC) was monitored at 515 nm using a multiplate reader (Spark, Tecan, Austria). Simultaneously, the absorbance of the dye at a wavelength of 515 nm was investigated as a control of the dye–colour correction (XD). The radical reduction rate (DR) was calculated according to the following equation: DR(%)=(XC−(XP−XD)/XC)×100% ABTS assay: In this method, the ability of the tested dye to reduce the dark green ABTS radical cation (ABTS^●+) was evaluated. […] Next, the ABTS^●+ solution was diluted with PBS to an absorbance of 0.7 at 734 nm measured using a Tecan plate reader (Spark, Tecan, Austria). […]
On the technique in general: Loss of DPPH colour is used to gauge radical scavenging.

Turning to `O=S(=O)(O)c1cccc2cccc(Nc3ccccc3)c12` [ANS, 8-anilino-1-naphthalenesulfonic acid], the Km in the data set with laccase (LAC) stood at 435 µM. Also, the “Eo vs. NHE (oxidation potential)” value in [1] came to 0.768 V. This molecule also gave an EC50 in the data set with Vibrio fisheri of 19 µg/mL (≈ 63.5 µM). The concentration for half-maximal inhibition (IC50) in data set [2] stood at 382 µg/mL (≈ 1280 µM); in data set [3], 322 µg/mL (≈ 1080 µM); in [4], 247 µg/mL (≈ 825 µM); in [5], 295 µg/mL (≈ 985 µM). In addition, in [6], the IC50 at 24 h was at least 247 µg/mL. Also, the MBC (in the data set on S. aureus ATCC 25923; in [7]) was 400 µg/mL (≈ 1340 µM) in each case. Also, the “IC50 ABTS” value in “ABTS assay (antioxidant)” turned out to be 0.027 µg/mL (≈ 0.0902 µM). Further, in “DPPH assay (antioxidant)”, the “IC50 DPPH” value came out at 153 µg/mL (≈ 511 µM). The “IC50 Luminol” value in [8] is reported as 6 µg/mL (≈ 20 µM). Besides, in data set [9], the “IC50 values (antioxidative potential)” value is 0.027 to 153 µg/mL.
